Measured values taken from patent publication US4350697A, “Antidepressant and neuroleptic benzothiopyrano [2,3-c]-pyridines” (Roussel Uclaf, priority 1980, dated 1982).
pIC50: −log10 of the molar value. Structures can show the parent of a compound that is named as a salt.

Key:
[1] = biological target: neuroleptic receptors (frontal cortex membranes, major serotonergic component); test: [3H] spiroperidol receptor binding displacement on frontal cortex membranes (test A); details: [3H] spiroperidol 0.19 nM, rat frontal cortex membranes, 37° C., 10 minutes
Text: A. [^3 H] Spiroperidol binding to neuroleptic receptors in membranes prepared from the striatum and frontal cortex of rats
The binding of [^3 H] spiroperidol to frontal cortex membranes appears to entail a major serotonergic component, whereas in striatal membranes the binding is predominantly dopaminergic [Leysen et al, Nature Vol. 272 (1978) p. 168-171] The ability of drugs to displace this radioligand from the frontal cortical receptors matches their activity in other models of serotonergic function, both for agonists and antagonists. Likewise, in striatal membranes, such activities predict the antidopaminergic action of neuroleptic drugs.
[Phenyl-4(n)-^3 H] spiroperidol (Radiochemical Centre, TRK 570 21 Ci/mmol was used as the labelled ligand supplied as a 250 μCi/250 μl solution in ethanol and this solution was diluted 3.2/10,000 in assay buffer and 0.1 ml of this was added to 2 ml of binding assay.
=0.19 nM [^3 H] spiroperidol
The assay buffer was a modified 50 mM Tris HCl buffer with a pH of 7.6 and containing 120 mM of sodium chloride, 5 mM of potassium chloride, 1 mM of magnesium chloride, 2 mM of calcium chloride, 10 μM of pargyline and 0.1% of ascorbic acid.
The membrane preparation involved dissecting the frontal cortices or striata from 4 male CFHB rats according to J. Glowinski et al [Eur. J. Pharmacol., Vol. 49, (1978), P. 201-202]. The frontal cortex was taken as that cortical tissue in `C`, dorsal to a horizontal reference line passing through the point where the olfactory bulbs join the frontal cortex. The animals were killed by cervical dislocation and the dissected tissue was homogenized in 20 volumes of ice cold 0.32 M sucrose with a Teflon/glass homogeniser. The homogenate was centrifuged at 1000 g for 10 minutes and the resulting supernatant was recentrifuged at 30,000 g for 30 minutes. The supernatant was discarded and the pellet was resuspended by homogenization in 30 volumes of ice cold assay buffer.
Non-specific binding was accounted for by the inclusion of 1 μM (+) butaclamol in blank binding assays and this required a stock solution of 20 μM in distilled water. Solutions of displacing compounds were prepared at 20x final assay concentration in distilled water.
Binding assays of 1.3 ml assay buffer, 0.5 ml membrane suspension, 0.1 ml distilled H2 O or drug solutions and 0.1 ml [^3 H] spiroperidol dilution were made up in ice with the [^3 H] spiroperidol being added last and incubated at 37° C. for 10 minutes. The bound ligand was separated by filtration through Whatman GF/C filters under vacuum followed by 2×10 ml rinses of ice cold assay buffer. The filters were dried at 80° C. and counted in 5 ml volumes of ECONOFLUOR (NEN). All binding assays, controls, blanks and each displacer concentration were run in triplicate. The [^3 H] spiroperidol receptor binding displacement results on frontal cortex membranes (test A) and on striatal membranes (test B) are given in Table III below and the results are expressed as IC50 (nM).

[2] = biological target: Muscarinic chloinergic receptor; type: binding; details: [3H] QNB 0.3 nM, rat forebrain membranes, 25° C., 1 hour; read-out: IC50 test D
[3] = test system: hypothermia induced by apomorphine; test: Reversal of apomorphine hypothermia in mice (test E); type: in vivo; details: Mus musculus, ip; male CD/l mice, test drug i.p. 30 minutes before apomorphine hydrochloride 16 mg/kg s.c.; rectal temperature 30 minutes later; read-out: ED50 for the reversal of the hypothermia induced by apomorphine HCl in mice (test E)
Protocol: D. Reversal of apomorphine hypothermia in mice
Whereas the reversal of the hypothermia induced in mice by low doses of apomorphine is a characteristic of classical neuroleptic agents, the hypothermia induced by high doses of this agent is specifically reversed by antidepressant drugs [Puech et al., In `Advances in Pharmacology and Therapeutics Vol., 5` ed. Dumont, c. Pergamon p. 171-176 (1979)]. Groups of 10 male CD/l mice (16-22 g) were dosed with vehicle or test drug intraperitoneally 30 minutes prior to the subcutaneously injection of apomorphine hydrochloride at 16 mg/kg. The rectal temperatures were recorded 30 minutes later using a rectal thermometer with digital readout.

[4] = biological target: α-noradrenergic receptor; test: [3H] WB-4101 receptor binding displacement, rat cortical membranes (test C); details: [3H] WB-4101 0.25 nM, 25° C., 15 minutes

`CN1CCC2=C(c3ccccc3)c3ccc(Cl)cc3SC2C1` (stereo not drawn) [Example 21] gave a pIC50 [1] of 5.94, a pIC50 [2] of 4.23 and an ED50 [3] of over 100 mg/kg. For the same molecule, the pIC50 [4] was 5.52.
`Cc1ccc(C2=C3CCN(C)CC3Sc3ccccc32)cc1C` (stereo not drawn) [Example 14] showed a pIC50 [1] of 6.81, a pIC50 [2] of under 4.00 and an ED50 [3] of 30 mg/kg. The pIC50 [4] was 6.30.
`CN1CCC2=C(c3ccc(N(C)C)cc3)c3ccccc3SC2C1` (stereo not drawn) [Example 6, 2-methyl-5-(4-dimethylaminophenyl)-1,3,4,10a-tetrahydro-2H[1]benzothiopyrano[2,3-c]pyridine] was tested, and the pIC50 [1] was 6.95, the pIC50 [2] was under 4.00 and the pIC50 [4] was 7.00.
With `c1ccc(C2=C3CCNCC3Sc3ccccc32)cc1` (stereo not drawn) [Example 17] the pIC50 [1] was 6.20, the pIC50 [2] was 4.71 and the ED50 [3] was 35 mg/kg. It also gave a pIC50 [4] of 6.17.
For `CN1CCC2=C(c3ccccc3)c3ccccc3SC2C1.Cl` (stereo not drawn) [Example 1, 2-methyl-5-phenyl-1,3,4,10a-tetrahydro-2H-[1]-benzothiopyrano[2,3-c]pyridine hydrochloride], the pIC50 [1] was 6.60, the pIC50 [2] was 4.85 and the ED50 [3] was 30 mg/kg. The pIC50 [4] was 6.40.
With `Cc1cccc2c1SC1CN(C)CCC1=C2c1ccccc1` (stereo not drawn) [Example 18] the pIC50 [1] was 6.76, the pIC50 [2] was 4.41 and the ED50 [3] was over 40 mg/kg. It also gave a pIC50 [4] of 6.10.
With `Cc1ccc2c(c1)SC1CN(C)CCC1=C2c1ccccc1` (stereo not drawn) [Example 16] the pIC50 [1] was 6.15, the pIC50 [2] was 4.53 and the pIC50 [4] was 5.84.
`COc1ccc(C2=C3CCN(C)CC3Sc3ccccc32)cc1` (stereo not drawn) [Example 4] showed a pIC50 [1] of 6.88, a pIC50 [2] of 4.21 and an ED50 [3] of 15 mg/kg. For the same molecule, the pIC50 [4] was 6.92.
In the case of `Cc1ccccc1C1=C2CCN(C)CC2Sc2ccccc21` (stereo not drawn) [Example 10], the pIC50 [1] was 6.98, the pIC50 [2] was 5.09 and the ED50 [3] was 80 mg/kg. It also gave a pIC50 [4] of 6.09.
With `Cc1cccc(C2=C3CCN(C)CC3Sc3ccccc32)c1` (stereo not drawn) [Example 7] the pIC50 [1] was 6.60, the pIC50 [2] was 5.06 and the ED50 [3] was over 40 mg/kg. For the same molecule, the pIC50 [4] was 6.09.
Work on `CN1CCC2=C(c3cccc(Cl)c3)c3ccccc3SC2C1` (stereo not drawn) [Example 5] yielded a pIC50 [1] of 6.37, a pIC50 [2] of 4.79 and an ED50 [3] of over 40 mg/kg. The pIC50 [4] was 5.71.
Molecule `Cc1ccc(C2=C3CCN(C)CC3Sc3ccccc32)cc1` (stereo not drawn) [Example 3, 2-methyl-5-(4-tolyl)-1,3,4,10a-tetrahydro-2H[1]benzothiopyrano[2,3-c]pyridine] has a pIC50 [1] of 7.60, a pIC50 [2] of 4.13 and an ED50 [3] of 20 mg/kg. It also gave a pIC50 [4] of 7.54.
`Cc1cc(C)c(C2=C3CCN(C)CC3Sc3ccccc32)c(C)c1` (stereo not drawn) [Example 24] was tested, and the pIC50 [1] was 6.51, the pIC50 [2] was 5.93 and the ED50 [3] was over 40 mg/kg. It also gave a pIC50 [4] of 6.21.
In the case of `CN1CCC2=C(c3ccccc3)c3cccc(Cl)c3SC2C1` (stereo not drawn) [Example 20], the pIC50 [1] was 6.52, the pIC50 [2] was 4.17 and the pIC50 [4] was 5.98.
In the case of `CN1CCC2=C(c3ccccc3)c3cc(Cl)ccc3SC2C1` (stereo not drawn) [Example 13], the pIC50 [1] was 5.83, the pIC50 [2] was 4.32 and the ED50 [3] was over 40 mg/kg. For the same molecule, the pIC50 [4] was 6.45.
Molecule `Cc1ccc2c(c1)C(c1ccccc1)=C1CCN(C)CC1S2` (stereo not drawn) [Example 22] has a pIC50 [1] of 5.61, a pIC50 [2] of under 4.00 and an ED50 [3] of over 100 mg/kg. For the same molecule, the pIC50 [4] was 4.90.
`Cc1cccc(C)c1C1=C2CCN(C)CC2Sc2ccccc21` (stereo not drawn) [Example 23] gave a pIC50 [1] of 6.48, a pIC50 [2] of 5.36 and an ED50 [3] of over 40 mg/kg. For the same molecule, the pIC50 [4] was 6.21.
For `Cc1ccc(C2=C3CCN(C)CC3Sc3ccccc32)c(C)c1` (stereo not drawn) [Example 19, 2-methyl-5-(2,4-dimethylphenyl)-1,3,4,10a-tetrahydro-2H-[1]benzothiopyrano[2,3-c]pyridine hydrochloride], the pIC50 [1] was 7.49, the pIC50 [2] was 4.37 and the pIC50 [4] was 7.64.
In the case of `CN1CCC2=C(c3ccc(Cl)c(Cl)c3)c3ccccc3SC2C1` (stereo not drawn) [Example 8], the pIC50 [1] was 6.27, the pIC50 [2] was under 4.00 and the pIC50 [4] was 6.20.
In the case of `CCCOc1ccc(C2=C3CCN(C)CC3Sc3ccccc32)cc1` (stereo not drawn) [Example 11], the pIC50 [1] was 5.90, the pIC50 [2] was under 4.00 and the ED50 [3] was 22 mg/kg. It also gave a pIC50 [4] of 5.17.
With `CCN1CCC2=C(c3ccccc3)c3ccccc3SC2C1` (stereo not drawn) [Example 12] the pIC50 [1] was 6.40, the pIC50 [2] was 4.72 and the pIC50 [4] was 6.30.
For `CCc1ccc(C2=C3CCN(C)CC3Sc3ccccc32)cc1` (stereo not drawn) [Example 9], the pIC50 [1] was 7.30, the pIC50 [2] was under 4.00 and the ED50 [3] was over 40 mg/kg. For the same molecule, the pIC50 [4] was 7.23.
`CN1CCC2=C(c3ccc(Cl)cc3)c3ccccc3SC2C1` (stereo not drawn) [Example 2] gave a pIC50 [1] of 6.22, a pIC50 [2] of under 4.00 and an ED50 [3] of over 40 mg/kg. It also gave a pIC50 [4] of 6.16.
For `CN1CCC2=C(c3ccc(N)cc3)c3ccccc3SC2C1.Cl` (stereo not drawn) [Example 15, 5-(4-aminophenyl)-2-methyl-1,3,4,10a-tetrahydro-2H-[1]benzothiopyrano[2,3-c]pyridine hydrochloride], the pIC50 [1] was 6.80, the pIC50 [2] was 5.10 and the ED50 [3] was 5 mg/kg. It also gave a pIC50 [4] of 6.43.
